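These data come from cells grown in 96-well plates and exposed to compound for 48 hours at five concentrations. GI50 is the concentration that inhibits growth by half. Definition used: TGI = concentration required for complete inhibition of growth.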
Tests used:
Test in all cases: NCI-60 cell line screen, 48 h
A549 NSCLC = system: A549 NSCLC
MOLT-4 leukemia = system: MOLT-4 leukemia
HOP-92 NSCLC = system: HOP-92 NSCLC
OVCAR-8 ovarian = system: OVCAR-8 ovarian
KM12 colon = system: KM12 colon
TK-10 renal = system: TK-10 renal
UO-31 renal = system: UO-31 renal
EKVX NSCLC = system: EKVX NSCLC
SNB-19 CNS = system: SNB-19 CNS
786-0 renal = system: 786-0 renal
MDA-MB-231 breast = system: MDA-MB-231 breast
HOP-62 NSCLC = system: HOP-62 NSCLC
SF-539 CNS = system: SF-539 CNS
HL-60(TB) leukemia = system: HL-60(TB) leukemia
RXF 393 renal = system: RXF 393 renal
U251 CNS = system: U251 CNS
HCT-116 colon = system: HCT-116 colon
OVCAR-5 ovarian = system: OVCAR-5 ovarian
ACHN renal = system: ACHN renal
SW-620 colon = system: SW-620 colon
LOX IMVI melanoma = system: LOX IMVI melanoma
M14 melanoma = system: M14 melanoma
NCI/ADR-RES ovarian = system: NCI/ADR-RES ovarian
SK-MEL-28 melanoma = system: SK-MEL-28 melanoma
SNB-75 CNS = system: SNB-75 CNS
T-47D breast = system: T-47D breast
SF-268 CNS = system: SF-268 CNS
NCI-H226 lung = system: NCI-H226 lung
HCC-2998 colon = system: HCC-2998 colon
OVCAR-4 ovarian = system: OVCAR-4 ovarian
HS 578T breast = system: HS 578T breast
CCRF-CEM leukemia = system: CCRF-CEM leukemia
HT29 colon = system: HT29 colon
PC-3 prostate = system: PC-3 prostate
SK-MEL-5 melanoma = system: SK-MEL-5 melanoma
MDA-MB-435 = system: MDA-MB-435
UACC-257 melanoma = system: UACC-257 melanoma
SF-295 CNS = system: SF-295 CNS
OVCAR-3 ovarian = system: OVCAR-3 ovarian
RPMI-8226 leukemia = system: RPMI-8226 leukemia
NCI-H522 lung = system: NCI-H522 lung
HCT-15 colon = system: HCT-15 colon
NCI-H23 lung = system: NCI-H23 lung
COLO 205 colon = system: COLO 205 colon
MALME-3M melanoma = system: MALME-3M melanoma
NCI-H460 lung = system: NCI-H460 lung
UACC-62 melanoma = system: UACC-62 melanoma
SN12C renal = system: SN12C renal
DU-145 prostate = system: DU-145 prostate
SR leukemia = system: SR leukemia
IGROV1 ovarian = system: IGROV1 ovarian
K-562 leukemia = system: K-562 leukemia
MCF7 breast = system: MCF7 breast
CAKI-1 renal = system: CAKI-1 renal
SK-MEL-2 melanoma = system: SK-MEL-2 melanoma
A498 renal = system: A498 renal
SK-OV-3 ovarian = system: SK-OV-3 ovarian
BT-549 breast = system: BT-549 breast

CCC(/C=C(C)/C=C/C(=O)c1c(O)c(-c2ccc(O)cc2)c[nH]c1=O)CO (stereo not drawn)
GI50 (A549 NSCLC): 20.7 µM
TGI (A549 NSCLC): 93.8 µM
GI50 (MOLT-4 leukemia): 5.84 µM
TGI (MOLT-4 leukemia): 44.2 µM
GI50 (HOP-92 NSCLC): 8.55 µM
TGI (HOP-92 NSCLC): 82.6 µM
GI50 (OVCAR-8 ovarian): 8.34 µM
TGI (OVCAR-8 ovarian): > 100 µM
GI50 (KM12 colon): 4.2 µM
TGI (KM12 colon): 16.1 µM
GI50 (TK-10 renal): 20.4 µM
TGI (TK-10 renal): 80.8 µM
GI50 (UO-31 renal): 6.74 µM
TGI (UO-31 renal): 28.7 µM
GI50 (EKVX NSCLC): 15.4 µM
TGI (EKVX NSCLC): 68 µM
GI50 (SNB-19 CNS): 11.9 µM
TGI (SNB-19 CNS): 27.4 µM
GI50 (786-0 renal): 8.1 µM
TGI (786-0 renal): 20.6 µM
GI50 (MDA-MB-231 breast): 9.17 µM
TGI (MDA-MB-231 breast): 29.5 µM
GI50 (HOP-62 NSCLC): 14.2 µM
TGI (HOP-62 NSCLC): 37.2 µM
GI50 (SF-539 CNS): 3.22 µM
TGI (SF-539 CNS): 26 µM
GI50 (HL-60(TB) leukemia): 2.83 µM
TGI (HL-60(TB) leukemia): 17.4 µM
GI50 (RXF 393 renal): 5.82 µM
TGI (RXF 393 renal): 22.2 µM
GI50 (U251 CNS): 6.91 µM
TGI (U251 CNS): 23.9 µM
GI50 (HCT-116 colon): 6.61 µM
TGI (HCT-116 colon): 19.2 µM
GI50 (OVCAR-5 ovarian): 13 µM
TGI (OVCAR-5 ovarian): 27.1 µM
GI50 (ACHN renal): 11.9 µM
TGI (ACHN renal): 37.9 µM
GI50 (SW-620 colon): 10.7 µM
TGI (SW-620 colon): 26.9 µM
GI50 (LOX IMVI melanoma): 9.87 µM
TGI (LOX IMVI melanoma): 21.5 µM
GI50 (M14 melanoma): 12.9 µM
TGI (M14 melanoma): 26.7 µM
GI50 (NCI/ADR-RES ovarian): 21.6 µM
TGI (NCI/ADR-RES ovarian): > 100 µM
GI50 (SK-MEL-28 melanoma): 11.8 µM
TGI (SK-MEL-28 melanoma): 24.6 µM
GI50 (SNB-75 CNS): 6.11 µM
TGI (SNB-75 CNS): 24.5 µM
GI50 (T-47D breast): 10.6 µM
TGI (T-47D breast): 54.2 µM
GI50 (SF-268 CNS): 6.8 µM
TGI (SF-268 CNS): 21.1 µM
GI50 (NCI-H226 lung): 18 µM
TGI (NCI-H226 lung): > 100 µM
GI50 (HCC-2998 colon): 13 µM
TGI (HCC-2998 colon): 25.6 µM
GI50 (OVCAR-4 ovarian): 12 µM
TGI (OVCAR-4 ovarian): > 100 µM
GI50 (HS 578T breast): 2.78 µM
TGI (HS 578T breast): 36.1 µM
GI50 (CCRF-CEM leukemia): 3.53 µM
TGI (CCRF-CEM leukemia): 26.7 µM
GI50 (HT29 colon): 13.9 µM
TGI (HT29 colon): 29.2 µM
GI50 (PC-3 prostate): 14.3 µM
TGI (PC-3 prostate): 82.1 µM
GI50 (SK-MEL-5 melanoma): 11.2 µM
TGI (SK-MEL-5 melanoma): 24.3 µM
GI50 (MDA-MB-435): 4.34 µM
TGI (MDA-MB-435): 31.9 µM
GI50 (UACC-257 melanoma): 11.3 µM
TGI (UACC-257 melanoma): 25 µM
GI50 (SF-295 CNS): 10.1 µM
TGI (SF-295 CNS): 30.9 µM
GI50 (OVCAR-3 ovarian): 3.8 µM
TGI (OVCAR-3 ovarian): 16.1 µM
GI50 (RPMI-8226 leukemia): 6.89 µM
TGI (RPMI-8226 leukemia): 32.3 µM
GI50 (NCI-H522 lung): 5.56 µM
TGI (NCI-H522 lung): 21 µM
GI50 (HCT-15 colon): 8.13 µM
TGI (HCT-15 colon): 22.1 µM
GI50 (NCI-H23 lung): 9.55 µM
TGI (NCI-H23 lung): 24.1 µM
GI50 (COLO 205 colon): 15.5 µM
TGI (COLO 205 colon): 28.8 µM
GI50 (MALME-3M melanoma): 10.3 µM
TGI (MALME-3M melanoma): 26.4 µM
GI50 (NCI-H460 lung): 6.15 µM
TGI (NCI-H460 lung): 21.9 µM
GI50 (UACC-62 melanoma): 10.2 µM
TGI (UACC-62 melanoma): 23.3 µM
GI50 (SN12C renal): 11.8 µM
TGI (SN12C renal): 41.9 µM
GI50 (DU-145 prostate): 2.83 µM
TGI (DU-145 prostate): 12.5 µM
GI50 (SR leukemia): 2.43 µM
TGI (SR leukemia): 13.2 µM
GI50 (IGROV1 ovarian): 6.11 µM
TGI (IGROV1 ovarian): 42.1 µM
GI50 (K-562 leukemia): 4.11 µM
TGI (K-562 leukemia): 37.4 µM
GI50 (MCF7 breast): 4.35 µM
TGI (MCF7 breast): 18.9 µM
GI50 (CAKI-1 renal): 10.5 µM
TGI (CAKI-1 renal): 47.5 µM
GI50 (SK-MEL-2 melanoma): 16 µM
TGI (SK-MEL-2 melanoma): 52.2 µM
GI50 (A498 renal): 3.69 µM
TGI (A498 renal): 18.8 µM
GI50 (SK-OV-3 ovarian): 23.4 µM
TGI (SK-OV-3 ovarian): 99.5 µM

C=CCCC(=O)N1CCC(C(=O)OCC)C1=O (stereo not drawn)
TGI (A549 NSCLC): > 100 µM
TGI (BT-549 breast): > 100 µM
TGI (MOLT-4 leukemia): > 100 µM
TGI (OVCAR-8 ovarian): > 100 µM
TGI (KM12 colon): > 100 µM
TGI (TK-10 renal): > 100 µM
TGI (UO-31 renal): > 100 µM
TGI (EKVX NSCLC): > 100 µM
TGI (SNB-19 CNS): > 100 µM
TGI (786-0 renal): > 100 µM
TGI (MDA-MB-231 breast): > 100 µM
TGI (HOP-62 NSCLC): > 100 µM
TGI (SF-539 CNS): > 100 µM
TGI (HL-60(TB) leukemia): > 100 µM
TGI (RXF 393 renal): > 100 µM
TGI (U251 CNS): > 100 µM
TGI (HCT-116 colon): > 100 µM
TGI (OVCAR-5 ovarian): > 100 µM
TGI (ACHN renal): > 100 µM
TGI (SW-620 colon): > 100 µM
TGI (LOX IMVI melanoma): > 100 µM
TGI (M14 melanoma): > 100 µM
TGI (NCI/ADR-RES ovarian): > 100 µM
TGI (SK-MEL-28 melanoma): > 100 µM
TGI (SNB-75 CNS): > 100 µM
TGI (T-47D breast): > 100 µM
TGI (SF-268 CNS): > 100 µM
TGI (NCI-H226 lung): > 100 µM
TGI (OVCAR-4 ovarian): > 100 µM
TGI (HS 578T breast): > 100 µM
TGI (CCRF-CEM leukemia): > 100 µM
TGI (PC-3 prostate): > 100 µM
TGI (SK-MEL-5 melanoma): > 100 µM
TGI (MDA-MB-435): > 100 µM
TGI (UACC-257 melanoma): > 100 µM
TGI (SF-295 CNS): > 100 µM
TGI (NCI-H522 lung): > 100 µM
TGI (HCT-15 colon): > 100 µM
TGI (NCI-H23 lung): > 100 µM
TGI (COLO 205 colon): > 100 µM
TGI (MALME-3M melanoma): > 100 µM
TGI (UACC-62 melanoma): > 100 µM
TGI (SN12C renal): > 100 µM
TGI (DU-145 prostate): > 100 µM
TGI (IGROV1 ovarian): > 100 µM
TGI (CAKI-1 renal): > 100 µM
TGI (SK-MEL-2 melanoma): > 100 µM
TGI (A498 renal): > 100 µM
TGI (SK-OV-3 ovarian): > 100 µM

Source: PubChem BioAssay (NCI)
